Patent US12496302B2, “Compositions and methods for the treatment and diagnosis of cancer” (The General Hospital Corporation, priority 2020, dated 2025)

Columns and labels:
[1] = system: cancer cell lines (HST578, MBAMD231, HCC1937, HCC1954); assay: Cell survival (colony) assay with TRDMT1i alone, Example 19; assay type: cell-based; conditions: HCC1954 (HRD, high SYCP2)
Method: FIGS. 14A-14C show TRDMT1i alone reduce cancer cell survival in a dose-dependent manner. (FIG. 14A) Survival rate of HR proficient (HR+) HST578 cancer cells with and without siBRCA1 and/or TRDMT1i YW-1842 at indicated dose. The survival rate of these cells was analyzed (n=3, Mean±SD). (FIG. 14B) Survival rate of MBAMD231 (HR+) and HCC1937 (HRD) cells. The survival rate of these cells was analyzed (n=3, Mean±SD). (FIG. 14C) Cell survival rate in different cancer cell lines via colony-forming assay with the treatment of Imatinib at indicated dose (n=3, mean+/−S.D.). Cell lines are listed in order with the expression level from SYCP2high to SYCP2low.
HCC1500, HCC1954, BT549, MCF7 and MDAMB468 were cultured in Roswell Park Memorial Institute (RPMI) 1640 Medium (Sigma, R8758) with 10% (vol/vol) fetal bovine serum (FBS, XY Cell Culture, FBS-500) at 37° C., 5% CO2. siBRCA1 (L-003461-00, Dharmacon) was transfected with Lipofectamine RNAiMax (Invitrogen; Carlsbad, CA, USA). PARPi Olaparib (AZD2281/Ku-0059436, Sellekchem, S1060) and Pol theta inhibitor Novobiocin (Sigma) were used.
Cells were seeded in each 6-cm dish and cultured as described above. They were treated with drugs with indicated dose in medium after seeding. After 7-10 days, colonies were fixed and stained with 0.3% crystal violet in methanol, and the number of colonies was counted manually.

[2] = system: MD-MBA-231 xenograft tumors; assay: MDA-MB-231 xenograft with PARPi; assay type: in vivo, BALB/c nude mice; conditions: injection every 2 days after day 7, 23 days
Method: FIGS. 9A-9G show SYCP2 is required for efficient homologous recombination. (FIG. 9A) Cell survival rate of HeLa and MDAMB231 via colony forming assay with the treatment of 2 μM, 4 μm, 6 μM, 8 μM, 16 μM of Olaparib (n=3, mean+/−S.D.). Western blot of SYCP2 overexpression in HeLa and MDA-MB-231 is shown in the left. (FIG. 9B) Cell survival rate of HeLa via colony forming assay with the treatment of 1 μM, 2 μm, 3 μM of Olaparib (n=3, mean+/−S.D.). Western blot of SYCP2 knockdown in Hela is shown in the left. (FIG. 9C) Scheme of Xenograft design using intraperitoneal injection of MBA-MD-231 into successful developed mouse model with virus-associated SYCP2 knockdown and control groups is shown in the left. PARPi was injected every 2 days after day 7. The graph is shown the recorded tumor size of each tested group with PARPi treatment or saline at each treatment day. (FIG. 9D). Numbers of SYCP2 IR induced foci (IRIF) colocalizing with γH2AX in MDAMB231 and HeLa cells. Cells were fixed and counted for foci numbers after 2 Gy IR followed up indicated recovery time (t=0 hr, 12 hr, 24 hr, and 48 hr) (n=30, mean+/−S.D). (FIG. 9E). […] Fold increase of mean intensity at sites of irradiation compared to mean intensity of nucleus expression is quantified (n=5, mean+/−SD). […] Numbers of RAD51 IRIF in siCtrl and siSYCP2 treated MDAMB231 and U2OS cells after 2 Gy IR and 1 hour recovery were counted (n=20, +/−SD). […]

SKOV3 xenograft tumors = assay: SKOV3 subcutaneous xenograft with Cisplatin; assay type: in vivo, BALB/c nude mice; conditions: Lv-shTRDMT1 infected SKOV3 xenografts, Cisplatin 5 mg/kg intratumoral twice per week for 3 weeks
Method: FIGS. 5A-5E show reduced TRDMT1 expression renders Cisplatin sensitization in vivo. (FIG. 5A) Lv-shTRDMT1 or Lv-NC transfected SKOV3 cells were subcutaneously injected into BALB/c nude mice, a week after injection, Cisplatin (5 mg/kg) or saline was injected into the center of the xenograft tumors twice per week for 3 consecutive weeks. (FIG. 5B) Representative images of tumors in xenografts transfected with LV-shTRDMT1/LV-NC with saline or Cisplatin treatment. (FIG. 5C) Tumor size of SKOV3 subcutaneous xenograft tumors (n=6, Mean±SD). (FIG. 5D) WB for TRDMT1 in tumor tissues collected from mice in each group (Tissues from six tumors in the same group were mixed into one sample). (FIG. 5E) IHC of TRDMT1 and KI-67 expression in ovarian cancer tissues of patients who were platinum-sensitive (PFS>6) and −resistant (PFS<6) Staining was assessed and scored on a scale of 0 (<5% staining) to 4 (>75% staining) in G. Quantification of IHC staining (n=38, PFS>6, n=24; PFS<6, n=14) was shown.
SKOV3 cells (1.0×10^6) were transfected with LV-TRDMT1-RNAi (gcAGAAGA AATTCACAGGAAA, SEQ ID NO: 15) or LV-NC-RNAi and injected […] into female nude mice which were then randomly divided into 4 groups (6 animals per condition). […] PFS was calculated from the time of surgery to the time of progression or recurrence. […]

Row | SMILES | sensitivity of HCC1954 to PARPi [1] | tumor growth reduction by PARPi, SYCP2 knockdown versus control tumors ([2]; LV-siSYCP2 tumors) | tumor growth, control tumors ([2]; siControl tumors) | xenograft tumor size (SKOV3 xenograft tumors)
1 | O=C(c1cc(Cc2n[nH]c(=O)c3ccccc23)ccc1F)N1CCN(C(=O)C2CC2)CC1 [olaparib] | relatively resistant | more than control tumors | reduced the growth of control tumors | –
2 | N.N.[Cl][Pt][Cl] [cisplatin] | – | – | – | grew statistically smaller
